From ChEMBL document CHEMBL1909046, “DrugMatrix in vitro pharmacology data”

Columns and labels:
[1] = target: Melanocortin receptor 3 (Homo sapiens, UniProt P41968); type: cell membranes, HEK293, Membrane; details: hek293; note: in other assays of this panel Not Active means under 50% inhibition at 10 µM
[2] = target: Adenosine receptor A2a (Homo sapiens, UniProt P29274); assay: DRUGMATRIX: Adenosine A2A radioligand binding (ligand: […]); type: cell membranes, HEK293, Membrane; details: hek293; Not Active = under 50% inhibition at 10 µM
Sequence of Adenosine receptor A2a (P29274 whole entry): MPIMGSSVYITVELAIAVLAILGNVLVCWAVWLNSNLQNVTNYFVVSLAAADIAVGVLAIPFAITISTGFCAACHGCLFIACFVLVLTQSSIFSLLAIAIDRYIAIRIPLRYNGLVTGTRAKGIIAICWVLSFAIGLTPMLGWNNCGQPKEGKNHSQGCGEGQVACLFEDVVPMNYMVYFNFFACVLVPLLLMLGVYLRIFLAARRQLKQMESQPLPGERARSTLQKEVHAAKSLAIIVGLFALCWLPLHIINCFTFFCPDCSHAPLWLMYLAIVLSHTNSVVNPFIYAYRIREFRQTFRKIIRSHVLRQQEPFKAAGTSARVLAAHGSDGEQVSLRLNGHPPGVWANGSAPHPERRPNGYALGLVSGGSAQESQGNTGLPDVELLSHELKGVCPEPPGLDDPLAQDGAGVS

[3] = DRUGMATRIX: Atrial Natriuretic Factor (ANF) radioligand binding (ligand: [125I] ANF (rat)); type: cell membranes, Cavia porcellus, Dunkin-Hartley, Adrenal gland, Membrane; details: Not Active = under 50% inhibition at 10 µM
[4] = target: Nitric oxide synthase 1 (Rattus norvegicus, UniProt P29476); type: tissue-based, Cerebellum; note: in other assays of this panel Not Active means under 50% inhibition at 10 µM
Sequence of Nitric oxide synthase 1 (P29476 whole entry): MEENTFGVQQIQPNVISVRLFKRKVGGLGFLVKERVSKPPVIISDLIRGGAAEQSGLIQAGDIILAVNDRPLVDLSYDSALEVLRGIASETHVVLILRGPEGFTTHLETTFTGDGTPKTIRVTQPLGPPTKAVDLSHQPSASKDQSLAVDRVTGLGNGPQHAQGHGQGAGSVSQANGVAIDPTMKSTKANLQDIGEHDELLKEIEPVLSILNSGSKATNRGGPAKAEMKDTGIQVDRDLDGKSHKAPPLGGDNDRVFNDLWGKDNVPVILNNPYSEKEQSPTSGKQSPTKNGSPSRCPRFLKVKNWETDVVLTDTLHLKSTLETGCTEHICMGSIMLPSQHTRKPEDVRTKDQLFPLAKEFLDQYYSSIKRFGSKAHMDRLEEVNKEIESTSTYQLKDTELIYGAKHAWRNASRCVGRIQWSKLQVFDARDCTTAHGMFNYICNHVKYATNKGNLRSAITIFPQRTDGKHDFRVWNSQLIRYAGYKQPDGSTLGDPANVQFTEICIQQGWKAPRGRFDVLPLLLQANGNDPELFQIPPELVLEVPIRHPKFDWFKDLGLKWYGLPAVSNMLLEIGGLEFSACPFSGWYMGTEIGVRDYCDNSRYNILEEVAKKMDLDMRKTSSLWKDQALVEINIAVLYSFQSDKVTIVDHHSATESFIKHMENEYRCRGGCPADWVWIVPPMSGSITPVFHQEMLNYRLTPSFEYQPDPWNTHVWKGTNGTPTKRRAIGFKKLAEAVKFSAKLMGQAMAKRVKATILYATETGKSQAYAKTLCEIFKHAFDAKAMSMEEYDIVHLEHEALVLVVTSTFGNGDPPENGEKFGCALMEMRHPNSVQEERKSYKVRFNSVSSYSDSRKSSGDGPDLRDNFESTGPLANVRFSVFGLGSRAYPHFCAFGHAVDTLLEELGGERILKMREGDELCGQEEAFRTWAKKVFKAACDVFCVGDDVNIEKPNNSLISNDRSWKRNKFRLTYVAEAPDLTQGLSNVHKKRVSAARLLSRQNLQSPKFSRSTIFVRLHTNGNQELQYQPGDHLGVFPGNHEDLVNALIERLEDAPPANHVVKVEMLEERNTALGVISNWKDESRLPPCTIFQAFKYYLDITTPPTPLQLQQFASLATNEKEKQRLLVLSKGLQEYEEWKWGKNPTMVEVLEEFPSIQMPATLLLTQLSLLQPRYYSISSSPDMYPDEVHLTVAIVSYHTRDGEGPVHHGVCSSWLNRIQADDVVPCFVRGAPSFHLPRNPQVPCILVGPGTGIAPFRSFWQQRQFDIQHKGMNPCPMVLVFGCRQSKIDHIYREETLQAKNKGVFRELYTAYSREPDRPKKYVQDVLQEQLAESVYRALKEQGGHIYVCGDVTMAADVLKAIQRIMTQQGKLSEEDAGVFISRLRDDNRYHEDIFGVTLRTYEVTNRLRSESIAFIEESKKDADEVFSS

[5] = DRUGMATRIX: Calcium Channel Type L, Dihydropyridine radioligand binding (ligand: [3H] Nitrendipine); type: cell membranes, Rattus norvegicus, Wistar, Cerebral cortex, Membrane; details: Not Active = under 50% inhibition at 10 µM
[6] = DRUGMATRIX: Purinergic P2X radioligand binding (ligand: [3H] alpha, beta-Methylene-ATP); type: cell membranes, Oryctolagus cuniculus, New Zealand albino, Urinary bladder, Membrane; details: Not Active = under 50% inhibition at 10 µM
[7] = target: T1, C-C chemokine receptor type 4 (Homo sapiens, UniProt P51679); type: cell membranes, Chem-1, Membrane; note: in other assays of this panel Not Active means under 50% inhibition at 10 µM
T1 sequence (P51679 whole entry): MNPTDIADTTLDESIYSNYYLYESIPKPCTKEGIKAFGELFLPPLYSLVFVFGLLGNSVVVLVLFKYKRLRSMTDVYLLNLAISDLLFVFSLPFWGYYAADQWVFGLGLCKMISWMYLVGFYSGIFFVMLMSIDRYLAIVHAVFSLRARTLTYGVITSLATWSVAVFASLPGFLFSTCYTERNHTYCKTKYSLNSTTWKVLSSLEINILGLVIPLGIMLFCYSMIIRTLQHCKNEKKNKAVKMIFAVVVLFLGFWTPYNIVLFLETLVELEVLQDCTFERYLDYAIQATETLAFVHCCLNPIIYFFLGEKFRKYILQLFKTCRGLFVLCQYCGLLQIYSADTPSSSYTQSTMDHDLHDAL

Sequence of Melanocortin receptor 3 (P41968 whole entry): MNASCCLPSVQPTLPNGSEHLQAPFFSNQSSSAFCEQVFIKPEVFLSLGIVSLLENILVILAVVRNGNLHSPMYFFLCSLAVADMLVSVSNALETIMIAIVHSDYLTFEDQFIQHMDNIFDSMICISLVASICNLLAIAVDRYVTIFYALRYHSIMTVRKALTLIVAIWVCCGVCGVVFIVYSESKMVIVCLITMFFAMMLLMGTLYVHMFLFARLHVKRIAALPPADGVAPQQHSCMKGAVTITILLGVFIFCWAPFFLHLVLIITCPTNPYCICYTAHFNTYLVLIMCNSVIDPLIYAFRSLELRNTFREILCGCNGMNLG

Compound | IC50 [1] | IC50 [2] | IC50 [3] | Ki [3] | IC50 [4] | IC50 [5] | Ki [5] | IC50 [6] | Ki [6] | IC50 ([7]; chem-1) | IC50 ([7]; read-out: IC50) | Ki ([7]; read-out: Ki)
CC(N)C12CC3CC(CC(C3)C1)C2 (stereo not drawn) [RIMANTADINE] | Not Active | Not Active | Not Active | Not Active | Not Active | Not Active | Not Active | Not Active | Not Active | Not Active | – | –
CS(=O)(=O)c1ccc(C2=C(c3ccccc3)C(=O)OC2)cc1 [ROFECOXIB] | Not Active | Not Active | Not Active | Not Active | Not Active | Not Active | Not Active | Not Active | Not Active | Not Active | – | –
CCOc1cc(N)c(Cl)cc1C(=O)NCC1CN(Cc2ccc(F)cc2)CCO1 (stereo not drawn) [MOSAPRIDE] | Not Active | Not Active | Not Active | Not Active | Not Active | Not Active | Not Active | Not Active | Not Active | Not Active | – | –
Cc1ccnc(NS(=O)(=O)c2ccc(N)cc2)n1 [SULFAMERAZINE] | Not Active | Not Active | Not Active | Not Active | Not Active | Not Active | Not Active | Not Active | Not Active | Not Active | – | –
OC[C@@H](O)[C@@H](O)[C@H](O)[C@H](O)CO [MANNITOL] | Not Active | Not Active | Not Active | Not Active | Not Active | Not Active | Not Active | Not Active | Not Active | Not Active | – | –
Oc1ccc(/C=C/c2cc(O)cc(O)c2)cc1 [RESVERATROL] | Not Active | Not Active | Not Active | Not Active | Not Active | Not Active | Not Active | Not Active | Not Active | Not Active | – | –
CC1=C(/C=C/C(C)=C/C=C/C(C)=C/C(=O)O)C(C)(C)CCC1 [TRETINOIN] | Not Active | Not Active | Not Active | Not Active | Not Active | Not Active | Not Active | Not Active | Not Active | Not Active | – | –
C=CCc1ccc2c(c1)OCO2 [SAFROLE] | Not Active | Not Active | Not Active | Not Active | Not Active | Not Active | Not Active | Not Active | Not Active | Not Active | – | –
CCN(CC)N=O [N-NITROSODIETHYLAMINE] | Not Active | Not Active | Not Active | Not Active | Not Active | Not Active | Not Active | Not Active | Not Active | Not Active | – | –
CCN1CCCC1CNC(=O)c1cc(S(N)(=O)=O)ccc1OC (stereo not drawn) [SULPIRIDE] | Not Active | Not Active | Not Active | Not Active | Not Active | Not Active | Not Active | Not Active | Not Active | Not Active | – | –
O=C1CC[C@@]2(O)[C@H]3Cc4ccc(O)c5c4[C@@]2(CCN3CC2CC2)[C@H]1O5 [NALTREXONE] | Not Active | Not Active | Not Active | Not Active | Not Active | Not Active | Not Active | Not Active | Not Active | Not Active | – | –
C[N+]1(C)[C@@H]2C[C@@H](OC(=O)[C@H](CO)c3ccccc3)C[C@H]1[C@@H]1O[C@@H]12.[Br-] [METHSCOPOLAMINE BROMIDE] | Not Active | Not Active | Not Active | Not Active | Not Active | Not Active | Not Active | Not Active | Not Active | Not Active | – | –
CCN(CC)CCNC(=O)c1cc(Cl)c(N)cc1OC [METOCLOPRAMIDE] | Not Active | Not Active | Not Active | Not Active | Not Active | Not Active | Not Active | Not Active | Not Active | Not Active | – | –
O=C(OC[C@H]1O[C@@H](OC(=O)c2cc(O)c(O)c(OC(=O)c3cc(O)c(O)c(O)c3)c2)[C@H](OC(=O)c2cc(O)c(O)c(OC(=O)c3cc(O)c(O)c(O)c3)c2)[C@@H](OC(=O)c2cc(O)c(O)c(OC(=O)c3cc(O)c(O)c(O)c3)c2)[C@@H]1OC(=O)c1cc(O)c(O)c(OC(=O)c2cc(O)c(O)c(O)c2)c1)c1cc(O)c(O)c(OC(=O)c2cc(O)c(O)c(O)c2)c1 [TANNIC ACID] | Not Active | Not Active | Not Active | Not Active | Not Active | Not Active | Not Active | Not Active | Not Active | Not Active | – | –
CN1C(=O)OC(C)(C)C1=O [TRIMETHADIONE] | Not Active | Not Active | Not Active | Not Active | Not Active | Not Active | Not Active | Not Active | Not Active | Not Active | – | –
Cc1cn([C@H]2C=C[C@@H](CO)O2)c(=O)[nH]c1=O [STAVUDINE] | Not Active | Not Active | Not Active | Not Active | Not Active | Not Active | Not Active | Not Active | Not Active | Not Active | – | –
CN1C[C@H](CNC(=O)OCc2ccccc2)C[C@@H]2c3cccc4c3c(cn4C)C[C@H]21 [METERGOLINE] | Not Active | Not Active | Not Active | Not Active | Not Active | Not Active | Not Active | Not Active | Not Active | Not Active | – | –
CCN(CC)C(=S)SSC(=S)N(CC)CC | Not Active | Not Active | Not Active | Not Active | Not Active | Not Active | Not Active | Not Active | Not Active | – | 8.4 µM | 4.4 µM
Cc1cc2c(s1)Nc1ccccc1N=C2N1CCN(C)CC1 [OLANZAPINE] | Not Active | Not Active | – | – | Not Active | – | – | – | – | Not Active | – | –
CC(C)(C)NC[C@H](O)COc1cccc2c1CCCC2=O [LEVOBUNOLOL] | Not Active | Not Active | Not Active | Not Active | Not Active | Not Active | Not Active | Not Active | Not Active | Not Active | – | –
Nc1nc(N)c2nc(-c3ccccc3)c(N)nc2n1 | Not Active | Not Active | Not Active | Not Active | Not Active | Not Active | Not Active | Not Active | Not Active | Not Active | – | –
CN(C)CCC=C1c2ccccc2COc2ccccc21 [DOXEPIN] | Not Active | Not Active | – | – | Not Active | – | – | – | – | Not Active | – | –
CNCCCC12CCC(c3ccccc31)c1ccccc12 [MAPROTILINE] | Not Active | Not Active | – | – | Not Active | – | – | – | – | Not Active | – | –
